Assay results as given in patent publication US20250270648A1, “MOLECULAR SIGNATURE FOR ASSESSING THE RESPONSIVENESS OF CANCER TO MITOCHONDRIA-TARGETED ANTIOXIDANTS” (UNIVERSITÉ CATHOLIQUE DE LOUVAIN, priority 2021, published 2025).

How the values were obtained:
[1] = system: SkBr3 human breast cancer cells; test: Mitochondrial potential, JC-10; assay type: cell-based; conditions: indicated doses of MitoQ, 48 h
Protocol: (§1) The mitochondrial potential (ΔΨ) was measured using JC-10 Mitochondrial Membrane Potential Assay Kit (Abcam®, #ab112134), according to manufacturer's recommendations. Briefly, MDA-MB-231 (10^4 cells/well), SkBr3 (10^4 cells/well), MDA-MB-436 (10^4 cells/well) or MCF10A (10^5 cells/well) cells were seeded in 96-well plates and treated for 48 h±MitoQ. Cells were then washed twice and incubated with JC-10 (1× solution) for 45 min. Fluorescence intensities were measured at 490/525 nm and […] using a SpectraMax i3 spectrophotometer equipped with a MiniMax imaging cytometer (Molecular Devices®).

[2] = system: MDA-MB-231 human breast cancer cells; test: Mitochondrial potential, JC-10; assay type: cell-based; conditions: 48 h
Protocol: as §1

[3] = system: MDA-MB-436 spheroids; test: Spheres / stem-like spheroids; assay type: cell-based, human; conditions: increasing doses of MitoQ, over 1 week
Protocol: 3D models were used to obtain an enriched population in stem cells. For that, 10^4 MDA-MB-231, SkBr3 or MDA-MB-436 cancer cells were grown in suspension using 10 cm dishes coated with Polyhema in stem-cell medium: DMEM/F-12 (Gibco®, cat #11320033) supplemented with 100 units/mL penicillin, 100 μg/mL streptomycin, 20 μL/mL B27 (Gibco®, cat #17504044), 20 ng/mL human recombinant epithelial growth factor (EGF) (Peprotech®, cat #AF-100-15), 10 ng/mL basic fibroblast growth factor (bFGF; Peprotech®, cat #100-18B) and 2.5 mg/mL insulin. When spheres reached around 100 μm in diameter, they were washed with PBS and dissociated with accutase (Stem Cell Technology®, cat #07920) in order to have single cells again. […] Images were captured on Axiovert™ 40 CFL microscope equipped with a MRC camera. At the end of the treatment, living cells were collected for RNA extraction.
Stem like-spheroids were prepared by seeding 5,000 MDA-MB-231, SkBr3 or MDA-MB-436 dissociated spheres/well in ultra-Low attachment 96-well plates (Corning®, cat #7007) in stem cell medium supplemented as described above. […] Spheroid growth was monitored using an Axio Observer live-cell phase contrast microscope (Zeiss®).

[4] = system: MDA-MB-231 cells; test: Glucose consumption and lactate production, enzymatic assays on CMA600; assay type: cell-based, human; conditions: 48 h
Protocol: (§2) Glucose and lactate concentrations were measured in cell supernatants collected after 48 h of culture ±MitoQ, using specific enzymatic assays on a CMA600 analyzer (Aurora Borealis®), as previously described in Sonveaux et al. (J Clin Invest; 2008; 118, 3930-3942). All data were normalized by total protein content (Bio-Rad® Protein Assay).

[5] = system: SkBr3 cells; test: as above; assay type: cell-based, human; conditions: indicated doses of MitoQ, 48 h
Protocol: as §2

[6] = system: MDA-MB-436 cells; test: Western blotting (EMT proteins); assay type: cell-based, human; conditions: MitoQ 500 nM, 48 h
Protocol: For western blotting (WB), whole-protein extracts from MDA-MB-231, SkBr3 and MDA-MB-436 cells were prepared using RIPA buffer (50 mM Tris pH 7.4, 150 mM NaCl, 1% Triton-X-100, 0.05% sodium deoxycholate, 1 mM EDTA, 0.1% SDS, protease inhibitor cocktail and PhosSTOP Phosphatase Inhibitor Cocktail (Roche®)), centrifuged at 10,000×g for 10 min, and quantified using the Bio-Rad® Protein Assay. Proteins (50 μg for MDA-MB-231 and 100 μg for SkBr3 and MDA-MB-436 cells) were loaded into each lane of a 10-12% polyacrylamide gel in the presence of SDS, and were allowed to separate at 120 V for 90 min. The transfer of proteins onto nitrocellulose membranes was performed using an iBlot 2 Dry Blotting System (Thermo Fisher Scientific®) with the 7 min P0 program. Membranes were then blocked using 5% (w/v) powdered milk for 1 h, and incubated overnight at 4° C. with a primary antibody (Table 4).
β-actin served as a loading control. Immunodetection was performed at room temperature for 1 h using as secondary antibodies a horseradish peroxidase-conjugated goat anti-rabbit (Jackson®, Cat #111-035-003) and goat anti-mouse (Jackson®, Cat #115-035-003) in PBS-Tween containing 5% (w/v) milk or BSA. Detection was performed with ECL reagent (Amersham®, Cat #RPN2209), and protein bands were visualized and captured using ECL imager 600 (Amersham®). They were analyzed using the Image J software (Java).

[7] = system: MDA-MB-231 human breast cancer cells; test: Mitochondrial superoxide, EPR with MitoTEMPO-H ±PEG-SOD2; assay type: cell-based; conditions: MitoQ 100 nM, 48 h
Protocol: Mitochondrial superoxide levels were determined using electron paramagnetic resonance (EPR) with MitoTEMPO-H as a specific mitochondrial superoxide probe ±PEG-SOD2 to specifically assign signals to mitochondrial superoxide. EPR measurements were performed using a Bruker EMX-Plus spectrometer, operating in X-band (9.85 GHz) and equipped with a PremiumX ultra low noise microwave bridge and a SHQ high sensitivity resonator. Typical settings were: microwave power: 20 mW; attenuation: 10 dB; modulation frequency: 100 kHz; modulation amplitude: 0.1 mT; time constant: 20.48 ms; conversion time: 22.58 ms; sweep width: 0.15 mT. Briefly, MDA-MB-231, SkBr3, MCF10A or MDA-MB-436 cells were treated ±MitoQ for 48 h, harvested and resuspended in PBS at 2×10^6 cells/mL. The experimental mixture was prepared with cell suspension, 1 mM DTPA and 150 μM MitoTEMPO-H. It was then aspirated into a gas-permeable polytetrafluoroethylene (PTFE) tubing that was placed in a quartz tube opened at both ends. The tube was directly inserted inside the EPR cavity that was heated at 310° K with air during all experiments. […] Net superoxide production was calculated by subtracting the double integration values of the […] with PEG-SOD2 to the control value at timepoint 15 min.

COC1=C(OC)C(=O)C(CCCCCCCCCC[P+](c2ccccc2)(c2ccccc2)c2ccccc2)=C(C)C1=O [MitoQ]
Δψ, dose dependence [1]: dose-dependent decreases
mitochondrial potential (Δψ) ([2]; MitoQ 100 nM): decreased
Δψ, dose dependence ([2]; indicated doses of MitoQ): dose-dependent decreases
spheroid formation [3]: dose-dependently retarded
glycolytic rate (glucose consumption, lactate production) ([4]; MitoQ 100 nM): increasing
glycolytic compensation with increasing dose ([4]; indicated doses of MitoQ): saturated
glycolytic compensation with increasing dose [5]: saturated
protein expression of Vimentin, SNAI1, SNAI2 (SLUG), ZEB1 and TWIST1 [6]: decrease
mitochondrial superoxide and mitochondrial H2O2 production [7]: lower
